Experimental data from ChEMBL document CHEMBL1150694, “Jatrophane diterpenoids from Euphorbia mongolica as modulators of the multidrug resistance of L5128 mouse lymphoma cells” (J Nat Prod, 2003).

Tests used:
Assay type in all cases: cell-based
[1] = target: T1, ATP-dependent translocase ABCB1 (Homo sapiens, UniProt P08183); test: Inhibition of human MDR1 expressed in mouse L5178 cells assessed as fluorescence activity at 23 uM by rhodamine 123 exclusion test; details: l5178, 23 µM
[2] = target: T1, ATP-dependent translocase ABCB1; test: Inhibition of human MDR1 expressed in mouse L5178 cells assessed as fluorescence activity ratio at 11.2 uM by rhodamine 123 exclusion test relative to wild type mouse L5178 cells; details: l5178, 11.2 µM
[3] = target: T1, ATP-dependent translocase ABCB1; test: Inhibition of human MDR1 expressed in mouse L5178 cells assessed as fluorescence activity at 112 uM by rhodamine 123 exclusion test; details: l5178, 112 µM
[4] = target: T1, ATP-dependent translocase ABCB1; test: Inhibition of human MDR1 expressed in mouse L5178 cells assessed as fluorescence activity ratio at 112 uM by rhodamine 123 exclusion test relative to wild type mouse L5178 cells; details: l5178, 112 µM
[5] = target: T1, ATP-dependent translocase ABCB1; test: Inhibition of human MDR1 expressed in mouse L5178 cells assessed as fluorescence activity at 11.2 uM by rhodamine 123 exclusion test; details: l5178, 11.2 µM

T1 sequence (P08183 whole entry): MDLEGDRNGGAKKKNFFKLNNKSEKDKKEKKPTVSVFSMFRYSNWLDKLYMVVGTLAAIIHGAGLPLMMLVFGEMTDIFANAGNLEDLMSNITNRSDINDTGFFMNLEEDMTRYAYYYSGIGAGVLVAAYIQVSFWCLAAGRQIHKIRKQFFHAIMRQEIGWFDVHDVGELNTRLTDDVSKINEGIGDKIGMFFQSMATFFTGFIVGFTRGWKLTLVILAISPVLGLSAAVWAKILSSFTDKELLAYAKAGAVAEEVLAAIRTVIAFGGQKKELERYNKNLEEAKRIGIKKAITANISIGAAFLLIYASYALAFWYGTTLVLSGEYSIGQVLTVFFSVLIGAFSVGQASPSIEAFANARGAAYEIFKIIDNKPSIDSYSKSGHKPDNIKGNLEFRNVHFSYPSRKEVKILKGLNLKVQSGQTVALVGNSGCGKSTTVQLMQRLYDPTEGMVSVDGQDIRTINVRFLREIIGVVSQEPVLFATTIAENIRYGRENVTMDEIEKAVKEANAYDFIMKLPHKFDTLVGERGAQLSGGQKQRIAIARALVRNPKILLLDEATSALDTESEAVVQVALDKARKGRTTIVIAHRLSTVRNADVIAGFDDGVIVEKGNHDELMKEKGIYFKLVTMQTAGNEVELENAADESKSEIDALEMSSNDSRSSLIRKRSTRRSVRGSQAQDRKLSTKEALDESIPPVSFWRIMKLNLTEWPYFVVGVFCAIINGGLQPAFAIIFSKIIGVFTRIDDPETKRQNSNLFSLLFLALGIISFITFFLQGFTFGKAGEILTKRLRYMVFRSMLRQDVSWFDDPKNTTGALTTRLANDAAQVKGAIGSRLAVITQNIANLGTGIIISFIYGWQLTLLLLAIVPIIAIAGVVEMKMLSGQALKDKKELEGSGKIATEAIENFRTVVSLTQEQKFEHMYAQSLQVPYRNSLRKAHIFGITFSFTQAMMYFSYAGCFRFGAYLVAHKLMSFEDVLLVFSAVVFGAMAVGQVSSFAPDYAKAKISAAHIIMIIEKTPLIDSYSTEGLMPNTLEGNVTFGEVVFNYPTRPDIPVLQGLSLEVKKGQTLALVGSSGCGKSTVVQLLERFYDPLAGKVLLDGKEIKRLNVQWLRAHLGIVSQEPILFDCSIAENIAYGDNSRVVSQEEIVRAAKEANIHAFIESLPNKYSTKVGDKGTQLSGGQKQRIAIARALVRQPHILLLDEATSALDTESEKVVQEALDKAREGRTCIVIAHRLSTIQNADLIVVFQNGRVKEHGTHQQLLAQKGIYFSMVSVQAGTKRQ

Compound | Flu intensity [1] | Ratio [2] | Flu intensity [3] | Ratio [4] | Flu intensity [5]
COc1ccc(CCN(C)CCCC(C#N)(c2ccc(OC)c(OC)c2)C(C)C)cc1OC (stereo not drawn) | 158.9 |  |  |  | 
C=C1[C@H](OC(C)=O)[C@H]2[C@@H](OC(=O)c3ccccc3)[C@@H](C)C[C@]2(O)C(=O)[C@@H](C)/C=C/C(C)(C)C(=O)[C@H](OC(C)=O)[C@H]1OC(C)=O (relative stereo) |  | 12.29 | 277.08 | 22.92 | 148.64
C=C1[C@H](OC(C)=O)[C@@H](OC(C)=O)[C@@H](OC(C)=O)C(C)(C)/C=C/[C@H](C)C(=O)[C@@]2(OC(C)=O)C[C@H](C)[C@H](OC(=O)c3ccccc3)[C@@H]2[C@H]1OC(C)=O (relative stereo) |  | 2.6 | 217.81 | 18.02 | 31.46
C=C1[C@H](OC(C)=O)[C@@H](OC(C)=O)[C@@H](OC(C)=O)C(C)(C)/C=C/[C@H](C)C(=O)[C@@]2(OC(C)=O)C[C@H](C)[C@H](OC(C)=O)[C@@H]2[C@H]1OC(=O)c1ccccc1 (relative stereo) |  | 2.79 | 354.21 | 29.29 | 33.71
